From patent publication US9233127B2, “Compositions and methods for CXCR4 signaling and umbilical cord blood stem cell engraftment” (University of Virginia Patent Foundation, priority 2012, dated 2016)
Entries after “also recorded” stand apart in the source; their conditions may differ. Ends that are not written are not given here.

How the values were obtained:
DNA methyltransferase = test: miR-184 expression by RT-PCR in adult CD4 T-cells treated with 5-aza deoxycytidine; format: cell-based, human; conditions: 10 uM for 24 h
Description: FIG. 29A-B—A.) Schematic of the genomic region surrounding hsa-miR-184. Dots denote CpG sites and a putative CpG island (defined by observed/expected CpG incidence>[…], GC>50%, length>100 bp) located closely upstream. B) Adult CD4 T-cells were cultured with and without the DNA methyltransferase blocker 5-aza deoxycytidine (5-aza) for 24 h, a portion stimulation for 6 h, then assayed for miR-184 expression by RT-PCR.
However, expression of many miRNA species is known to be mediated by epigenetic events such as DNA methylation. […] Indeed we observed a small predicted (obs/exp>0.6, GC>50%) CpG island upstream of the miR-184 genomic site as well as several additional downstream CpG sites (FIG. 29 A). Inhibition of […] gene silencing is accomplished by treating with 5-aza-deoxycytidine, which is incorporated into replicating DNA and blocks DNA methyltransferase enzymes.

UCB T-cells = test: Cytoplasmic IFN-γ and NFAT1 expression in UCB T-cells during mitogen stimulation; format: cell-based, human
Description: To further test expression and regulation, exogenous IFN-γ was added (100 or 1,000 U/ml) during mitogen stimulation and cytoplasmic IFN-γ expression in UCB T-cells was measured.

NFAT1 = NFAT1 protein and miR-184 in UCB CD4 T-cells stimulated with αCD3/CD28 plus exogenous IFN-γ; format: cell-based, human; conditions: for NFAT1 protein expression: CD3/28 stimulation 24 h, absence of monocytes, 1000 U/ml
Description: FIG. 22A-B—Rescue of NFAT1 protein in UCB CD4 T-cells during primary stimulation in the presence of exogenous IFN-γ. UCB CD4 T-cells were stimulated with αCD3/CD28 for 24 h with 1000 U/ml of exogenous rh-IFN-γ. Cell lysates were harvested and Western Blot was probed for NFAT1 and β-actin.

CD34+ cells = test: Transwell chemotaxis of CD34+ cells to an SDF-1 gradient (priming); format: cell-based, human
Description: (§1) FIG. 11A-B—Effect of SLP and its components on chemotaxis of CD34^+ cells. Panel A: Chemotaxis of BM CD34^+ cells towards medium alone (control), SDF-1 low (10 ng/mL) alone, SLP (combined SLP from three patients), SDF-1 low+SLP, and SDF-1 high (300 ng/mL). Data are pooled from quadruplicate samples from three independent experiments. *p<0.00001. Panel B: Chemotaxis of UCB CD34^+ cells to medium alone (control), SDF-1 low (10 ng/mL) alone and SDF-1 low (10 ng/mL)+uPAR (1 μg/mL) or +ICAM (1 μg/mL) or +VCAM (1 μg/mL) or +FN (2 μg/mL), or +FG (4 μg/mL) or +C3a (1 μg/mL). Data are pooled from quadruplicate samples from three independent experiments. * p<0.00001.
Chemotaxis of CD34^+ cells to medium alone (control), C3a (1 μg/ml), C3adesArg (1 μg/ml), SDF-1 low (10 ng/mL) alone, and SDF-1 low (10 ng/mL)+C3a low (0.1 μg/ml) or SDF-1 low (10 ng/mL)+C3a (1 μg/ml) or SDF-1 low (10 ng/mL)+C3adesArg (1 μg/ml). Data are pooled from quadruplicate samples from three independent experiments.* p<0.00001.
FIG. 13A-B—Chemotaxis of cells to an SDF-1 gradient is lipid raft-dependent. Panel A: Chemotaxis of CD34^+ cells to medium alone (control), SDF-1 (300 ng/mL) and SDF-1 (300 ng/mL) after preincubation for 1 hr with Amphotericin (10 μg/mL) or Nystatin (50 μg/mL). Cells were collected after chemotaxis from the lower chambers and plated in a clonogenic assay. The number of CFU-GM and BFU-E colonies formed by harvested cells is shown as a percentage of control values. Data are pooled from quadruplicate samples from three independent experiments. *p<0.0001. Panel B: Chemotaxis of CD34^+ cells towards medium alone (control), SDF-1 low (10 ng/mL) alone, or SDF-1 low with cells exposed to C3a (1 μg/mL). Cells pretreated before chemotaxis for 1 hr with MβCD (2.5 mM) are shown as gray bars. Data are pooled from quadruplicate samples from three independent experiments. * p<0.00001.
HSPCs from the mPB engraft faster compared to HSPCs aspirated from BM. To test the hypothesis that mPB-derived HSPCs are primed in their responses to SDF-1 by molecules present in SLP, we pooled together SLP from three patients and exposed BM or UCB CD34^+ cells to the SLP during chemotaxis to a low (10 ng/mL) dose of SDF-1.
To address this issue further, the formation of rafts in the cells was perturbed by MβCD, which depletes cholesterol from the cell membrane. The CD34^+ cells were pre-incubated with MβCD for 1 hr. Chemotaxis to a low dose of SDF-1 in the presence of C3a (in the upper chambers) was evaluated.

UCB CD34+ cells = test: Transwell chemotaxis of UCB CD34+ cells to SDF-1 (priming); format: cell-based, human; conditions: UCB-derived CD34+ cells exposed/primed
Description: as §1
An increased migration of UCB-derived CD34^+ cells, as compared to BM and mPB CD34^+ cells was reported in transwell migration assays was previously reported. However, we noticed large inter-individual differences in the in vitro migratory ability of UCB CD34^+ cells, ranging from 1.1% to 14.3% for spontaneous migration and 3.1% to 62.3% for SDF-1-induced (300 ng/mL) migration. The lower migratory capacity in vitro of UCB-derived CD34^+ cells was not due to lower expression of CXCR4, but likely reflects the decreased migratory behavior of these cells. […] Based on this, we postulate that UCB HSPC responsiveness to an SDF-1 gradient varies with each collected UCB unit and that, in cases when responsiveness is low, UCB HSPCs should be identified and primed before infusion.
Moreover, as SLP contains several components that potentially could prime the responses of CD34^+ cells, (Example 2, FIG. 11, panel B) the most important being PMV and activated complement proteins such as anaphylatoxin C3a, soluble VCAM-1, soluble ICAM-1, uPAR, FG, and FN, we evaluated whether these factors could induce the chemotaxis of HSPCs when used alone. […] We also examined whether FG, FN, soluble VCAM-1, soluble ICAM-1, uPAR, and C3a prime HSPCs in their responses to SDF-1. […] To determine whether this also affects UCB CD34^+ clonogenic progenitors, UCB CD34^+ cells were collected from the lower chambers after the chemotaxis assay and plated in methylcellulose cultures. […] Moreover, a similar effect for the established hematopoietic cell lines Molt 4, Nalm-6, and THP-1 was also found (data not shown).

CXCR4 [1] = test: Western blot of CXCR4 in lipid raft membrane fractions of THP-1 cells; format: cell-based, human
Description: FIG. 15A-B—Western blot analysis of the colocalization of CXCR4 in fractions of cell membranes enriched in lipid rafts (fractions 3-5) and depleted of lipid rafts (fractions 9-11). Panel A: Hematopoietic THP-1 cells were stimulated by C3a (1 μg/mL) or desArgC3a (1 μg/mL) or not stimulated (control). CXCR4 was detected in these membrane fractions by Western blot along with ganglioside GM1, a marker of lipid rafts. Experiments were performed three times with similar results. Panel B: In control experiments, cells were pretreated for 1 hr with 10 mM MβCD. A representative study is shown.
Furthermore, direct evidence of the effect of priming agents on CXCR4 incorporation into membrane lipid rafts was obtained from Western blot analysis of CXCR4 expression in various fractions of cell membranes isolated according to their lipid raft content (Example 2, FIG. 15A-B). […] The role of C3a in incorporation of CXCR4 into membrane lipid rafts in UCB cells and involvement of other signaling molecules to this phenomenon will be evaluated in Aim 1.

CXCR4 [2] = test: Western blot of CXCR4 in lipid raft membrane fractions, cationic peptides (Nalm-6); format: cell-based, human
Description: (§2) FIG. 18A-B—Priming effect of cationic peptides is dependent on enhanced incorporation of CXCR4 into lipid rafts. (A) Western blot analysis of the localization of CXCR4 in various fractions of cell membranes. Membranes enriched in lipid rafts (fractions 3-5) and depleted of lipid rafts (fractions 9-11). Human pre-B cell line, Nalm-6, was stimulated with […] β2-defensin (hBD-2) (250 ng/ml) or was not stimulated (control). CXCR4 was detected in these membrane fractions by Western blot along with Lyn, a marker of lipid rafts. Experiments were performed three times with similar results. (B) LL-37-induced enhancement of THP-1 cell migration to SDF-1 gradient was inhibited by 1 h pretreatment with MβCD (1.0 or 2.5 mM). * P<0.05 as compared with migration of control cells in the absence of LL-37 (2.5 μg/ml). Lipid raft formation was analyzed. Shown are representative of three independent experiment carried out in triplicate per group. The data shown represent the combine results from four independent experiments carried out in triplicate per group (n=12).
(§3) Since enhanced responsiveness of HSPCs to SDF-1 gradient in the presence of C3a (priming effect) is mediated by incorporation of CXCR4 into membrane lipid rafts, we tested if similar phenomenon is responsible for LL-37 or β2D-dependent priming. […]

[3] = system: murine BMNCs and CFU-GM progenitor cells; test: Migration of murine BMNCs and CFU-GM progenitors to SDF-1 gradient after cationic peptide priming; format: cell-based; conditions: for migration of CFU-GM progenitor cells in response to SDF-1 gradient / migration of murine BMNCs in response to SDF-1 gradient: SDF-1 50 ng/ml
Description: FIG. 8A-B—A) BM mononuclear cell and B) CFU-GM migration in response to an SDF-1 gradient after priming with LL-37 or hBD-2. Values are fold increases of migrated cells compared to media alone.
FIG. 17A-B—Cationic peptides released from granulocytes enhance responsiveness of HSPCs to SDF-1 gradient. […] Values are the fold increases of migrated cells compared to media alone. M, media alone; SDF-1 (L), 50 ng/ml; SDF-1 (H), 300 ng/ml; C3a, 1 μg/ml. * P<0.05 as compared with SDF-1 (50 ng/ml) alone. The data shown represent the combine results from four independent experiments carried out in triplicate per group (n=12).
We also evaluated the effect of complement fragment 5a (C5a). […] After leaving the BM, granulocytes undergo degranulation in response to plasma C5a and secrete cationic peptides, such as cathelicidin (LL-37) and β-defensin-2 (hBD-2). […] It was hypothesized that this response may be affected by the distribution of membrane lipids by cationic peptides. […] Direct confocal analysis of CXCR4 and lipid raft colocalization in the presence or absence of cationic peptides confirmed these findings.

THP-1 cell = THP-1 cell migration to SDF-1 gradient with LL-37 and MβCD pretreatment; format: cell-based
Description: as §2, §3

Nc1ncn([C@H]2C[C@H](O)[C@@H](CO)O2)c(=O)n1 [5-aza deoxycytidine, 5-aza-deoxycytidine]
miR-184 expression (DNA methyltransferase): significant increase
miR-184 expression increase when cells were stimulated in vitro (DNA methyltransferase; stimulation 6 h): abrogated

IFN-γ: exogenous rh-IFN-γ
percentages of IFN-γ-expressing UCB T-cells (UCB T-cells; exogenous cytokine added during mitogen stimulation, IFN-γ 100 or 1,000 U/ml, 24 h): nearly increased to that measured in adult T-cells
NFAT1 expression and concomitant IFN-γ expression (UCB T-cells; mitogen (ConA) stimulation plus exogenous IFN-γ): strong increases
IFN-γ expression (UCB T-cells; treatment with IFN-γ alone): did not stimulate IFN-γ expression
NFAT1 expression (UCB T-cells; treatment with IFN-γ alone): only slightly increased
miR-184 expression (qRT-PCR) (NFAT1; CD3/28 primary stimulation): marked decrease; also recorded: observed to decrease
NFAT1 protein expression (NFAT1): increases in NFAT1 protein expression
NFAT1 protein expression (NFAT1; listed as rh-IFN-γ): noted to increase

desArgC3a: fragment of C3a where the end arginine residue is cleaved; 76 residues; SEQ ID NO:2
chemotaxis of human CD34+ cells to low-threshold doses of SDF-1 (CD34+ cells; SDF-1 low 10 ng/mL, C3a or C3adesArg 1 μg/ml): potentiate (prime) chemotaxis
chemoattraction of CD34+ cells by the C3 cleavage fragment on its own (CD34+ cells; no SDF-1, 1 μg/ml): neither C3 cleavage fragments chemoattract
responsiveness of UCB cells to SDF-1 gradient (UCB CD34+ cells): significantly increase the responsiveness
incorporation of Rac-1 into membrane lipid rafts (CXCR4 [1]): increased the incorporation of Rac-1
incorporation of CXCR4 into GM1-enriched membrane lipid rafts (fractions 3-5) (CXCR4 [1]; 1 μg/mL): stimulates incorporation of CXCR4

hBD-2: β-defensin-2; recombinant cationic peptide released from granulocytes (GIGDPVTCLKSGAICHPVFCPRRYKQIGTCGLPGTKCCKKP; ends and bridges not checked; cysteine pairing not given here; UniProt O15263 24-64, looked up)
incorporation of CXCR4 into membrane lipid rafts (CXCR4 [2]): increase incorporation of CXCR4
priming effect compared with that described for C3a [3]: several times higher
responsiveness of hematopoietic progenitors to plasma SDF-1 (priming effect) [3]: highly enhanced
migration of CFU-GM progenitor cells in response to SDF-1 gradient [3]: strongly enhanced
migration of murine BMNCs in response to SDF-1 gradient [3]: strongly enhanced
migration of CFU-GM progenitor cells in response to SDF-1 gradient ([3]; listed as β2D): enhance/prime migration
migration of murine BMNCs in response to SDF-1 gradient ([3]; listed as β2D): enhance/prime migration
chemotactic activity alone ([3]; without SDF-1): do not show chemotactic activity

methyl-β-cyclodextrin [MβCD, reference compound]
inhibition of the priming effect of C3a (CD34+ cells; pre-incubated 1 hr with MβCD (2.5 mM), low dose of SDF-1): ~60%
LL-37-enhanced migration/responsiveness to SDF-1 gradient (THP-1 cell; 1 h pretreatment with MβCD (1.0 or 2.5 mM), LL-37 2.5 μg/ml): inhibited
fMLP mediated migration (THP-1 cell; control experiments, MβCD pretreatment): did not affect
effect on the priming effects of LL-37 and hBD-2 ([3]; inhibitor of cell membrane raft formation): inhibit the priming effects
